Assay results from patent publication US12187705B2, “Heteroaryl-triazole and heteroaryl-tetrazole compounds as pesticides” (Bayer Aktiengesellschaft, priority 2018, dated 2025).

Columns and labels:
Assay type in all cases: in vivo
Tetranychus urticae = Tetranychus urticae spray test OP-resistant; settings: Tetranychus urticae, foliar, 144 h, French bean leaf disks, after 6 days
Protocol: Tetranychus urticae—Spray Test OP-Resistant
To produce a suitable preparation of active compound, 1 part by weight of active compound is mixed with the stated amount of solvents and is diluted with water, containing an emulsifier concentration of 1000 ppm, to the desired concentration. Further test concentrations are prepared by dilution with emulsifier containing water.
French bean (Phaseolus vulgaris) leaf disks infected with all instars of the two spotted spidermite (Tetranychus urticae), are sprayed with a preparation of the active ingredient of the desired concentration.
After 6 days mortality in % is determined. 100% means all spider mites have been killed and 0% means none of the spider mites have been killed.

Myzus persicae = Myzus persicae spray test; settings: in Brassica rapa, foliar, 120 h
Outline: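 Percent kill was recorded 5 days after spraying. Test solutions, prepared with solvent and diluted in 1000 ppm emulsifier water, were applied to Brassica pekinensis leaf disks carrying mixed-instar green peach aphids.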

Ctenocephalides felis = Ctenocephalides felis oral test; settings: Ctenocephalides felis, in Bos taurus, po, 48 h
Outline: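 About 20 adult unfed fleas fed through parafilm on cattle blood containing compound (DMSO concentrate diluted in blood); blood held at 37° C., fleas at room temperature. Mortality in % scored after 2 days (100% = all killed).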

[1] = system: Musca domestica strain WHO-N; assay: Musca domestica test (MUSCDO surface treatment & contact assay); settings: 24 hours after contact, read-out: efficacy (mortality); for mortality at 20 mg/m2: surface concentration 20 mg/m^2, 30 minutes exposure
Protocol: Musca domestica Test (MUSCDO Surface Treatment & Contact Assay)
Solvent: Aceton+2000 ppm rapeseed oil methyl ester (RME)
In order to produce a sufficient, active ingredient containing solution it is necessary to solve the test-compound in the solvent-mix (Acetone at 2 mg/ml/RME 2000 ppm). This solution is pipetted onto a glazed tile and after evaporation of the Acetone, adult flies of the species Musca domestica strain WHO-N are placed onto the dried surface. The exposure time is 30 minutes.
Mortality in percent (%) is determined 24 hours after contact to the treated surface. 100% mortality means that all test-insects are dead, whereas 0% means that not a single insect died.

[2] = system: Aedes aegypti strain MONHEIM; assay: Aedes aegypti test (AEDSAE surface treatment & contact assay); settings: 24 hours after contact, read-out: efficacy (mortality); for mortality at 4 mg/m2: surface concentration 4 mg/m^2, 30 minutes exposure; for mortality at 20 mg/m2: surface concentration 20 mg/m^2, 30 minutes exposure
Outline: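 Compound dissolved in acetone (2 mg/ml) with 2000 ppm rapeseed oil methyl ester and dried onto a glazed tile. Adult mosquitoes held on the treated surface for 30 minutes exposure. Percent mortality scored 24 hours after contact.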

Boophilus microplus = Boophilus microplus injection test; settings: Rhipicephalus microplus, 168 h, 20 μg/animal, egg deposition after 7 days, read-out: efficacy (infertile eggs)
Outline: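 Efficacy expresses the share of infertile eggs (100% all infertile, 0% all fertile), judged at 7 days or at hatching around day 42. Five adult engorged females were each injected abdominally with 1 μl of DMSO compound solution and incubated in a climate chamber.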

Nezara viridula = Nezara viridula spray test; settings: in Hordeum vulgare, 96 h
Outline: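 Barley plants infested with stink bug larvae were sprayed with compound diluted in water containing 1000 ppm emulsifier. Mortality (%) was scored after 4 days, 100% meaning all bugs killed.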

Diabrotica balteata = Diabrotica balteata spray test; settings: Diabrotica balteata, 168 h; 160 μg/well, wheat seeds, after 7 days; read-out: efficacy (seedlings grown)
Outline: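 Efficacy (%) read 7 days after infesting treated seedlings with 10-20 banded cucumber beetle larvae, 100% meaning growth as in uninfected untreated control and 0% no growth. Test solutions in water containing 1000 ppm emulsifier were sprayed onto wheat seeds germinated for 1 day on agar.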

Spodoptera frugiperda = Spodoptera frugiperda spray test; settings: in Zea mays, 168 h
Outline: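 Leaf-spray assay on maize: sections treated with active ingredient at the desired concentration in emulsifier-containing water (1000 ppm) and, once dry, exposed to armyworm caterpillars. Kill rate is expressed in percent after seven days.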

Rhipicephalus sanguineus = Rhipicephalus sanguineus in-vitro contact test with adult brown dog ticks; settings: Rhipicephalus sanguineus; 5 μg/cm^2 (=500 g/ha), after 48 hours; read-out: efficacy (ticks dead or moribund)
Outline: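 Compound in acetone coated onto inner walls of glass tubes; 900 ppm gives 5 μg/cm^2. Five to ten adult ticks held 48 h at room temperature, then heated at 45-50° C. up to 5 min; ticks unable to climb away scored dead or moribund, efficacy as % dead/moribund.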

## CCN(C(=O)c1cc(Cl)cc(S(C)(=O)=O)c1)C(C)c1ncnn1-c1ncccn1 (centres unmarked) [Example I-040, 3-chloro-N-ethyl-5-(methylsulfonyl)-N-{1-[1-(pyrimidin-2-yl)-1H-1,2,4-triazol-5-yl]ethyl}benzamide]
Tetranychus urticae
  mortality at 500 g/ha: 90%
Myzus persicae
  mortality at 500 g/ha: 90%
Ctenocephalides felis
  mortality at 100 ppm: 100%
[1]
  mortality at 20 mg/m2: 80 to 100%
[2]
  mortality at 4 mg/m2: 80 to 100%
  mortality at 20 mg/m2: 90 to 100%
Boophilus microplus
  pest or weed control at 0.02 mg: 100%
Nezara viridula
  mortality at 500 g/ha: 100%
Diabrotica balteata
  pest or weed control at 160 µg/disc, 160 µg/well: 100%
Spodoptera frugiperda
  mortality at 500 g/ha: 100%
Rhipicephalus sanguineus
  pest or weed control at 5 µg/cm2, 5 µg/cm2: 100%

## C[C@@H](NC(=O)c1cc(Cl)cc(S(=O)(=O)C2CC2)c1)c1ncnn1-c1ncccn1 [Example I-042]
Tetranychus urticae
  mortality at 500 g/ha: 90%
Myzus persicae
  mortality at 500 g/ha: 90%
Ctenocephalides felis
  mortality at 100 ppm: 100%
[1]; surface concentration 4 mg/m^2, 30 minutes exposure
  mortality at 4 mg/m2: 80 to 100%
[1]
  mortality at 20 mg/m2: 80 to 100%
[2]
  mortality at 4 mg/m2: 80 to 100%
  mortality at 20 mg/m2: 90 to 100%
Boophilus microplus
  pest or weed control at 0.02 mg: 100%
Nezara viridula
  mortality at 500 g/ha: 100%
Diabrotica balteata
  pest or weed control at 160 µg/disc, 160 µg/well: 100%
Spodoptera frugiperda
  mortality at 500 g/ha: 83%
Rhipicephalus sanguineus
  pest or weed control at 5 µg/cm2, 5 µg/cm2: 80%
